Measured values as given in patent US10471046B2, “Method for treating, preventing, or reducing the risk of skin infection” (Melinta Subsidiary Corp., priority 2014, dated 2019).
≈ marks a conversion by molar mass, not a printed value.

test system: S. aureus; test: Minimum inhibitory concentrations (MICs) for S. aureus of exemplary compounds (Table 2); assay type: cell-based; conditions: Staphylococcus aureus, minimum inhibitory concentrations for S. aureus; read-out: MICs
Summary of the method: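 MICs (μg/mL) against S. aureus come from microtiter-tray dilution susceptibility testing per NCCLS M7-A5, comparing growth with and without compound.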

| Compound | MIC |
| --- | --- |
| CC(=O)NC[C@H]1CN(c2ccc(-c3ccc(CNC(=O)c4csc(C)n4)cc3)c(F)c2)C(=O)O1 [Compound 4242, 2-Methyl-thiazole-4-carboxylic acid {4′-[5-(S)-(acetylamino-methyl)-2-oxo-oxazolidin-3-yl]-2′-fluoro-biphenyl-4-ylmethyl}-amide] | 2 µg/mL (≈ 4.14 µM) |
| CC(=O)NC[C@H]1CN(c2ccc(-c3ccc(CNCCCSc4cnn[nH]4)cc3)c(F)c2)C(=O)O1 [Compound 5002, N-[3-(2-Fluoro-4′-{[3-(3H-[1,2,3]triazol-4-ylsulfanyl)-propylamino]-methyl}-biphenyl-4-yl)-2-oxo-oxazolidin-5-(S)-ylmethyl]-acetamide] | 0.25 µg/mL (≈ 0.501 µM) |
| CC(=O)NC[C@H]1CN(c2ccc(-c3ccc(S(=O)(=O)NCCc4ccccn4)cc3)c(F)c2)C(=O)O1 [Compound 3007, N-{3-[2-Fluoro-4′-(2-pyridin-2-yl-ethylsulfamoyl)-biphenyl-4-yl]-2-oxo-oxazolidin-5-(S)-ylmethyl}-acetamide] | 1 µg/mL (≈ 1.95 µM) |
| CC(=O)NC[C@H]1CN(c2ccc(-c3ccc(CNCc4c[nH]c(=O)[nH]c4=O)cc3)c(F)c2)C(=O)O1 [Compound 4101, N-[3-(4′-{[(2,4-Dioxo-1,2,3,4-tetrahydro-pyrimidin-5-ylmethyl)-amino]-methyl}-2-fluoro-biphenyl-4-yl)-2-oxo-oxazolidin-5-(S)-ylmethyl]-acetamide] | 1 µg/mL (≈ 2.08 µM) |
| CC(=O)NC[C@H]1CN(c2ccc(-c3ccc(CNC(=O)[C@@H]4C=CCN4)cc3)c(F)c2)C(=O)O1 [Compound 4306, 2,5-Dihydro-1H-pyrrole-2-(S)-carboxylic acid {4′-[5-(S)-(acetylamino-methyl)-2-oxo-oxazolidin-3-yl]-2′-fluoro-biphenyl-4-ylmethyl}-amide] | 2 µg/mL (≈ 4.42 µM) |
| CC(=O)NC[C@H]1CN(c2ccc(-c3ccc(CNCc4ccc(-n5cccc5)cc4)cc3)c(F)c2)C(=O)O1 [Compound 4147, N-(3-{2-Fluoro-4′-[(4-pyrrol-1-yl-benzylamino)-methyl]-biphenyl-4-yl}-2-oxo-oxazolidin-5-(S)-ylmethyl)-acetamide] | 4 µg/mL (≈ 7.8 µM) |
| CC(=O)NC[C@H]1CN(c2ccc(-c3ccc(CNCc4ccsc4)cc3)c(F)c2)C(=O)O1 [Compound 4086, N-[3-(2-Fluoro-4′-{[(thiophen-3-ylmethyl)-amino]-methyl}-biphenyl-4-yl)-2-oxo-oxazolidin-5-(S)-ylmethyl]-acetamide] | 4 µg/mL (≈ 8.82 µM) |
| CC(=O)NC[C@H]1CN(c2ccc(-c3ccc(CNCC4OCCO4)cc3)c(F)c2)C(=O)O1 [Compound 4209, N-[3-(4′-{[([1,3]Dioxolan-2-ylmethyl)-amino]-methyl}-2-fluoro-biphenyl-4-yl)-2-oxo-oxazolidin-5-(S)-ylmethyl]-acetamide] | 0.5 µg/mL (≈ 1.13 µM) |
| CC(=O)NC[C@H]1CN(c2ccc(-c3ccc(CNCc4c(CO)cnc(C)c4O)cc3)c(F)c2)C(=O)O1 [Compound 4095, N-[3-(2-Fluoro-4′-{[(3-hydroxy-5-hydroxymethyl-2-methyl-pyridin-4-ylmethyl)-amino]-methyl}-biphenyl-4-yl)-2-oxo-oxazolidin-5-(S)-ylmethyl]-acetamide] | 4 µg/mL (≈ 7.87 µM) |
| CC(=O)NC[C@H]1CN(c2ccc(-c3ccc(CNC(=O)Cn4ccnn4)cc3)c(F)c2)C(=O)O1 [Compound 4239, N-{4′-[5-(S)-(Acetylamino-methyl)-2-oxo-oxazolidin-3-yl]-2′-fluoro-biphenyl-4-ylmethyl}-2-[1,2,3]triazol-1-yl-acetamide] | 2 µg/mL (≈ 4.29 µM) |
| CC(=O)NC[C@H]1CN(c2ccc(-c3ccc(CNCc4nn(-c5ccccc5)nc4C)cc3)c(F)c2)C(=O)O1 [Compound 4146, N-[3-(2-Fluoro-4′-{[(5-methyl-2-phenyl-2H-[1,2,3]triazol-4-ylmethyl)-amino]-methyl}-biphenyl-4-yl)-2-oxo-oxazolidin-5-(S)-ylmethyl]-acetamide] | 4 µg/mL (≈ 7.57 µM) |
| CC(=O)NC[C@H]1CN(c2ccc(-c3ccc(CN4CCSCC4)cc3)c(F)c2)C(=O)O1 [Compound 1064, N-[3-(2-Fluoro-4′-thiomorpholin-4-ylmethyl-biphenyl-4-yl)-2-oxo-oxazolidin-5-(S)-ylmethyl]-acetamide] | 2 µg/mL (≈ 4.51 µM) |
| CC(=O)NC[C@H]1CN(c2ccc(-c3ccc(/C=N/Nc4nccc(C(F)(F)F)n4)cc3)c(F)c2)C(=O)O1 [Compound 2042, N-(3-{2-Fluoro-4′-[(4-trifluoromethyl-pyrimidin-2-yl)-hydrazonomethyl]-biphenyl-4-yl}-2-oxo-oxazolidin-5-(S)-ylmethyl)-acetamide] | 128 µg/mL (≈ 248 µM) |
| CCc1ccc(CNCc2ccc(-c3ccc(N4C[C@H](CNC(C)=O)OC4=O)cc3F)cc2)o1 [Compound 4161, N-[3-(4′-{[(5-Ethyl-furan-2-ylmethyl)-amino]-methyl}-2-fluoro-biphenyl-4-yl)-2-oxo-oxazolidin-5-(S)-ylmethyl]-acetamide] | 2 µg/mL (≈ 4.3 µM) |
| CC(=O)NC[C@H]1CN(c2ccc(-c3ccc(CNC(=O)[C@@H]4C[C@@H](O)CN4C(=O)OC(C)(C)C)cc3)c(F)c2)C(=O)O1 [Compound 4311, 2-({4′-[5-(S)-(Acetylamino-methyl)-2-oxo-oxazolidin-3-yl]-2′-fluoro-biphenyl-4-ylmethyl}-carbamoyl)-4-(R)-hydroxy-pyrrolidine-1-(S)-carboxylic acid tert-butyl ester] | 16 µg/mL (≈ 28 µM) |
| CC(=O)NC[C@H]1CN(c2ccc(-c3ccc(CSc4nnnn4CCN(C)C)cc3)c(F)c2)C(=O)O1 [Compound 2027, N-(3-{4′-[1-(2-Dimethylamino-ethyl)-1H-tetrazol-5-ylsulfanylmethyl]-2-fluoro-biphenyl-4-yl}-2-oxo-oxazolidin-5-(S)-ylmethyl)-acetamide] | 1 µg/mL (≈ 1.95 µM) |
| CC(=O)NC[C@H]1CN(c2ccc(-c3ccc(CNCc4cccnc4N4CCOCC4)cc3)c(F)c2)C(=O)O1 [Compound 4117, N-[3-(2-Fluoro-4′-{[(2-morpholin-4-yl-pyridin-3-ylmethyl)-amino]-methyl}-biphenyl-4-yl)-2-oxo-oxazolidin-5-(S)-ylmethyl]-acetamide] | 8 µg/mL (≈ 15 µM) |
| CC(=O)NC[C@H]1CN(c2ccc(-c3ccc(C(C)NCc4ccoc4)cc3)c(F)c2)C(=O)O1 (mixture of isomers) [Compound 4144, N-[3-(2-Fluoro-4′-{1-(R/S)-[(furan-3-ylmethyl)-amino]-ethyl}-biphenyl-4-yl)-2-oxo-oxazolidin-5-(S)-ylmethyl]-acetamide] | 4 µg/mL |
| CC(=O)NC[C@H]1CN(c2ccc(-c3ccc(Cn4cnc5c(N)ncnc54)cc3)c(F)c2)C(=O)O1 [Compound 1110, N-{3-[4′-(6-Amino-purin-9-ylmethyl)-2-fluoro-biphenyl-4-yl]-2-oxo-oxazolidin-5-(S)-ylmethyl}-acetamide] | 1 µg/mL (≈ 2.1 µM) |
| CC(=O)NC[C@H]1CN(c2ccc(-c3ccc(Cn4cnc(N)n4)cc3)c(F)c2)C(=O)O1 [Compound 1069, N-{3-[4′-(3-Amino-[1,2,4]triazol-1-ylmethyl)-2-fluoro-biphenyl-4-yl]-2-oxo-oxazolidin-5-(S)-ylmethyl}-acetamide] | 1 µg/mL (≈ 2.36 µM) |
| CC(=O)NC[C@H]1CN(c2ccc(-c3ccc(CSc4nnnn4C)cc3)c(F)c2)C(=O)O1 [Compound 2015, N-{3-[2-Fluoro-4′-(1-methyl-1H-tetrazol-5-ylsulfanylmethyl)-biphenyl-4-yl]-2-oxo-oxazolidin-5-(S)-ylmethyl}-acetamide] | 0.25 µg/mL (≈ 0.548 µM) |
| CC(=O)NC[C@H]1CN(c2ccc(-c3ccc(CNc4nc(CNC(=O)[C@@H](N)CCCCN)ns4)cc3)c(F)c2)C(=O)O1 [Compound 2014, 2,6-Diamino-hexanoic acid [5-({4′-[5-(acetylamino-methyl)-2-oxo-oxazolidin-3-yl]-2′-fluoro-biphenyl-4-ylmethyl}-amino)-[1,2,4]thiadiazol-3-ylmethyl]-amide] | 2 µg/mL (≈ 3.34 µM) |
| CC(=O)NC[C@H]1CN(c2ccc(-c3ccc(C(O)Cc4nnn[nH]4)cc3)c(F)c2)C(=O)O1 (stereo in doubt) [Compound 1060, N-(3-{2-Fluoro-4′-[1-(R)-hydroxy-2-(1H-tetrazol-5-yl)-ethyl]-biphenyl-4-yl}-2-oxo-oxazolidin-5-(S)-ylmethyl)-acetamide] | 64 µg/mL (≈ 145 µM) |
| COc1ccc2[nH]cc(CNCc3ccc(-c4ccc(N5C[C@H](CNC(C)=O)OC5=O)cc4F)cc3)c2c1 [Compound 4098, N-[3-(2-Fluoro-4′-{[(5-methoxy-1H-indol-3-ylmethyl)-amino]-methyl}-biphenyl-4-yl)-2-oxo-oxazolidin-5-(S)-ylmethyl]-acetamide] | 2 µg/mL (≈ 3.87 µM) |
| CC(=O)NC[C@H]1CC(c2ccc(-c3ccc(CNCc4ccncc4)cc3)cc2)=NO1 [Compound 4132, N-[3-(4′-{[(Pyridin-4-ylmethyl)-amino]-methyl}-biphenyl-4-yl)-4,5-dihydro-isoxazol-5-(R)-ylmethyl]-acetamide] | 4 µg/mL (≈ 9.65 µM) |
| CC(=O)NC[C@H]1CN(c2ccc(-c3ccc(CN(C)Cc4ccnc5ccccc45)cc3)c(F)c2)C(=O)O1 [Compound 4032, N-(3-{2-Fluoro-4′-[(methyl-quinolin-4-ylmethyl-amino)-methyl]-biphenyl-4-yl}-2-oxo-oxazolidin-5-(S)-ylmethyl)-acetamide] | 1 µg/mL (≈ 1.95 µM) |
| CC(=O)NC[C@H]1CN(c2ccc(-c3ccc([C@H](CO)NCc4c(C)nc(O)nc4O)cc3)c(F)c2)C(=O)O1 [Compound 4030, N-[3-(4′-{1-(R)-[(2,4-Dihydroxy-6-methyl-pyrimidin-5-ylmethyl)-amino]-2-hydroxy-ethyl}-2-fluoro-biphenyl-4-yl)-2-oxo-oxazolidin-5-(S)-ylmethyl]-acetamide] | 64 µg/mL (≈ 122 µM) |
| CC(=O)NC[C@H]1CN(c2ccc(-c3ccc(Cn4nnc(C(N)=O)c4N)cc3)c(F)c2)C(=O)O1 [Compound 1026, 1-{4′-[5-(S)-(Acetylamino-methyl)-2-oxo-oxazolidin-3-yl]-2′-fluoro-biphenyl-4-ylmethyl}-5-amino-1H-[1,2,3]triazole-4-carboxylic acid amide] | 2 µg/mL (≈ 4.28 µM) |

same assay, conditions: Staphylococcus aureus, read-out: MICs

| Compound | MIC |
| --- | --- |
| CC(=O)NC[C@H]1CN(c2ccc(-c3ccc(Cc4c[nH]cn4)cc3)c(F)c2)C(=O)O1 [Compound 1086, N-{3-[2-Fluoro-4′-(1H-imidazol-4-ylmethyl)-biphenyl-4-yl]-2-oxo-oxazolidin-5-(S)-ylmethyl}-acetamide] | 0.5 µg/mL (≈ 1.22 µM) |
